Experimental data from ChEMBL document CHEMBL1201862, “PubChem BioAssay data set” (2004).
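Dose response: 5 concentrations. Exposure: 48 h. Format: 96-well plates. Endpoint: linear interpolation; highest concentration if not reached. The concentration for 50% growth inhibition is given as GI50.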 Activity calls are given as the source filed them. Rule as the data show it: active = GI50 up to about 1.1 µM and inactive = higher.

Legend:
Test in all cases: growth of human tumour cells (NCI), 48 h
[1] = tested on: 786-0
[2] = tested on: A498
[3] = tested on: A549
[4] = tested on: ACHN
[5] = tested on: CAKI-1
[6] = tested on: CCRF-CEM
[7] = tested on: COLO 205
[8] = tested on: DLD-1
[9] = tested on: DMS-114
[10] = tested on: EKVX
[11] = tested on: HCC 2998
[12] = tested on: HCT-116
[13] = tested on: HCT-15
[14] = tested on: HL-60
[15] = tested on: HOP-18
[16] = tested on: HOP-62
[17] = tested on: HOP-92
[18] = tested on: HT-29
[19] = tested on: IGROV-1
[20] = tested on: K562
[21] = tested on: KM-20L2
[22] = tested on: KM12
[23] = tested on: LOX IMVI
[24] = tested on: LXFL 529
[25] = tested on: M14
[26] = tested on: MOLT-4
[27] = tested on: Malme-3M
[28] = tested on: NCI-H23
[29] = tested on: NCI-H460
[30] = tested on: NCI-H522
[31] = tested on: OVCAR-4
[32] = tested on: OVCAR-5
[33] = tested on: OVCAR-8
[34] = tested on: RPMI-8226
[35] = tested on: RXF 393
[36] = tested on: SF-268
[37] = tested on: SF-295
[38] = tested on: SF-539
[39] = tested on: SK-MEL-28
[40] = tested on: SK-MEL-2
[41] = tested on: SK-MEL-5
[42] = tested on: SK-OV-3
[43] = tested on: SN12C
[44] = tested on: SNB-19
[45] = tested on: SNB-75
[46] = tested on: SNB-78
[47] = tested on: SR
[48] = tested on: SW-620
[49] = tested on: TK-10
[50] = tested on: U-251
[51] = tested on: UACC-257
[52] = tested on: UACC-62
[53] = tested on: UO-31
[54] = tested on: XF498
[55] = tested on: DMS-273
[56] = tested on: M19-MEL
[57] = tested on: NCI-H226
[58] = tested on: OVCAR-3

COC(=O)C1(O)c2ccccc2N=C2C1CCN2C (configuration not stated)
GI50 [1]: > 100 µM (inactive)
GI50 [2]: > 100 µM (inactive)
GI50 [3]: > 100 µM (inactive)
GI50 [4]: > 100 µM (inactive)
GI50 [5]: > 100 µM (inactive)
GI50 [6]: > 100 µM (inactive)
GI50 [7]: > 100 µM (inactive)
GI50 [8]: > 100 µM (inactive)
GI50 [9]: > 100 µM (inactive)
GI50 [10]: > 100 µM (inactive)
GI50 [11]: > 100 µM (inactive)
GI50 [12]: > 100 µM (inactive)
GI50 [13]: > 100 µM
GI50 [14]: > 100 µM (inactive)
GI50 [15]: > 100 µM (inactive)
GI50 [16]: > 100 µM (inactive)
GI50 [17]: > 100 µM (inactive)
GI50 [18]: > 100 µM (inactive)
GI50 [19]: > 100 µM (inactive)
GI50 [20]: > 100 µM (inactive)
GI50 [21]: > 100 µM (inactive)
GI50 [22]: > 100 µM (inactive)
GI50 [23]: > 100 µM (inactive)
GI50 [24]: > 100 µM (inactive)
GI50 [25]: > 100 µM (inactive)
GI50 [26]: > 100 µM (inactive)
GI50 [27]: > 100 µM (inactive)
GI50 [28]: > 100 µM (inactive)
GI50 [29]: > 100 µM (inactive)
GI50 [30]: > 100 µM (inactive)
GI50 [31]: > 100 µM (inactive)
GI50 [32]: > 100 µM (inactive)
GI50 [33]: > 100 µM (inactive)
GI50 [34]: > 100 µM (inactive)
GI50 [35]: > 100 µM (inactive)
GI50 [36]: > 100 µM (inactive)
GI50 [37]: > 100 µM (inactive)
GI50 [38]: > 100 µM (inactive)
GI50 [39]: > 100 µM (inactive)
GI50 [40]: > 100 µM (inactive)
GI50 [41]: > 100 µM (inactive)
GI50 [42]: > 100 µM (inactive)
GI50 [43]: > 100 µM (inactive)
GI50 [44]: > 100 µM (inactive)
GI50 [45]: 26.8 µM (inactive)
GI50 [46]: > 100 µM (inactive)
GI50 [47]: > 100 µM (inactive)
GI50 [48]: > 100 µM (inactive)
GI50 [49]: > 100 µM (inactive)
GI50 [50]: > 100 µM (inactive)
GI50 [51]: > 100 µM (inactive)
GI50 [52]: > 100 µM (inactive)
GI50 [53]: > 100 µM (inactive)
GI50 [54]: > 100 µM (inactive)

COC(=O)C1CSC(c2csc(CCN)n2)=N1 (configuration not stated)
GI50 [1]: > 100 µM (inactive)
GI50 [3]: > 100 µM (inactive)
GI50 [4]: > 100 µM (inactive)
GI50 [5]: > 100 µM (inactive)
GI50 [6]: > 100 µM (inactive)
GI50 [7]: > 100 µM (inactive)
GI50 [9]: > 100 µM (inactive)
GI50 [55]: > 100 µM (inactive)
GI50 [10]: > 100 µM (inactive)
GI50 [11]: > 100 µM (inactive)
GI50 [12]: > 100 µM (inactive)
GI50 [13]: > 100 µM
GI50 [14]: > 100 µM (inactive)
GI50 [15]: > 100 µM (inactive)
GI50 [17]: > 100 µM (inactive)
GI50 [18]: > 100 µM (inactive)
GI50 [19]: > 100 µM (inactive)
GI50 [20]: > 100 µM (inactive)
GI50 [21]: > 100 µM (inactive)
GI50 [22]: > 100 µM (inactive)
GI50 [23]: > 100 µM (inactive)
GI50 [24]: > 100 µM (inactive)
GI50 [25]: > 100 µM (inactive)
GI50 [56]: > 100 µM (inactive)
GI50 [26]: > 100 µM (inactive)
GI50 [27]: > 100 µM (inactive)
GI50 [57]: > 100 µM (inactive)
GI50 [28]: > 100 µM (inactive)
GI50 [29]: > 100 µM (inactive)
GI50 [30]: > 100 µM (inactive)
GI50 [58]: > 100 µM (inactive)
GI50 [31]: > 100 µM (inactive)
GI50 [32]: > 100 µM (inactive)
GI50 [33]: > 100 µM (inactive)
GI50 [34]: > 100 µM (inactive)
GI50 [35]: > 100 µM (inactive)
GI50 [37]: > 100 µM (inactive)
GI50 [39]: > 100 µM (inactive)
GI50 [40]: > 100 µM (inactive)
GI50 [41]: > 100 µM (inactive)
GI50 [42]: > 100 µM (inactive)
GI50 [43]: > 100 µM (inactive)
GI50 [44]: > 100 µM (inactive)
GI50 [45]: > 100 µM (inactive)
GI50 [46]: > 100 µM (inactive)
GI50 [47]: > 100 µM (inactive)
GI50 [48]: > 100 µM (inactive)
GI50 [49]: > 100 µM (inactive)
GI50 [50]: > 100 µM (inactive)
GI50 [51]: > 100 µM (inactive)
GI50 [52]: > 100 µM (inactive)
GI50 [53]: > 100 µM (inactive)
GI50 [54]: > 100 µM (inactive)

O=c1n(CCCCn2c(=O)n(CC3CS3)c3ccccc32)c2ccccc2n1CC1CS1 (configuration not stated)
GI50 [4]: 25.1 µM (inactive)
GI50 [5]: 17.3 µM (inactive)
GI50 [6]: 17.1 µM (inactive)
GI50 [7]: 19 µM (inactive)
GI50 [9]: > 10 µM (inactive)
GI50 [55]: 19.2 µM (inactive)
GI50 [10]: 24.3 µM (inactive)
GI50 [11]: 19.7 µM (inactive)
GI50 [12]: 18.7 µM (inactive)
GI50 [13]: 18.2 µM
GI50 [14]: 2.17 µM (inactive)
GI50 [16]: 22.3 µM (inactive)
GI50 [17]: 23.9 µM (inactive)
GI50 [19]: 13.5 µM (inactive)
GI50 [20]: 15.7 µM (inactive)
GI50 [22]: 11.4 µM (inactive)
GI50 [23]: 3.14 µM (inactive)
GI50 [24]: 14.3 µM (inactive)
GI50 [25]: 8.99 µM (inactive)
GI50 [56]: 19.2 µM (inactive)
GI50 [26]: 1.95 µM (inactive)
GI50 [27]: 10.5 µM (inactive)
GI50 [30]: 16.6 µM (inactive)
GI50 [58]: 10.4 µM (inactive)
GI50 [31]: 15.5 µM (inactive)
GI50 [34]: 10.9 µM (inactive)
GI50 [36]: 24.9 µM (inactive)
GI50 [40]: 11.9 µM (inactive)
GI50 [42]: 58.1 µM (inactive)
GI50 [43]: 14.1 µM (inactive)
GI50 [45]: 26.1 µM (inactive)
GI50 [47]: 3.87 µM (inactive)
GI50 [48]: 18.6 µM (inactive)
GI50 [52]: > 10 µM (inactive)
GI50 [54]: 6.56 µM (inactive)
